Laboratory results from US8114862B2, “TGR5 modulators and methods of use thereof” (Intercept Pharmaceuticals, Inc., priority 2008, dated 2012).

Columns and labels:
[1] = molecular target: bovine serum albumin (Bos taurus, UniProt P02769); experiment: Albumin binding by equilibrium dialysis; assay type: in vitro ADME; conditions: 100 μM BA in 5% bovine serum albumin-saline, pH 7.2
Procedure: The extent of albumin binding was evaluated by equilibrium dialysis at a fixed BA-albumin ratio. BA was dissolved at a concentration of 100 μM in 5% bovine serum albumin-saline solution (pH 7.2) and left to stand for 24 h at 25° C. Two milliliters of this solution was dialyzed in cellulose sacs having a molecular weight cut-off of 12-14,000 against 25 ml of saline solution. The system was equilibrated by mechanical gently shaking for 72 h at 25° C. BA concentrations of the dialyzed solution (corresponding to the free unbound fraction) and of the starting solution were determined with HPLC-ESI-MS/MS in the same conditions of the previous analysis.
The percent of albumin binding was calculate from the initial BA concentration and from the unbound concentration in the dialyzed fraction.

[2] = molecular target: T1, LXRα (Homo sapiens, UniProt Q13133); experiment: LXR coactivator recruitment (alphascreen); assay type: biochemical
T1 sequence (Q13133 1-447): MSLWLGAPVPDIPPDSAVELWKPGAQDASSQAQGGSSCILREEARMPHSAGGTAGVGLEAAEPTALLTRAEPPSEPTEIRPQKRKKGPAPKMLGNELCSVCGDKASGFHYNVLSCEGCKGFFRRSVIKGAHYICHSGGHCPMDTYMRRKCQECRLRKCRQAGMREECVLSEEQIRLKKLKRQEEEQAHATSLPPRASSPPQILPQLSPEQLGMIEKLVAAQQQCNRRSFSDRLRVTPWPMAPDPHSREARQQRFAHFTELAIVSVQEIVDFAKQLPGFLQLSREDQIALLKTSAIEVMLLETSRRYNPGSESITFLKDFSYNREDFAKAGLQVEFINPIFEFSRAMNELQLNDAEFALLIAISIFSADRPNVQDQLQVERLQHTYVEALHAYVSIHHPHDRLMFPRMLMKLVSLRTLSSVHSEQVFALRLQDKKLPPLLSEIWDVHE

[3] = tested on: ileal explants; experiment: GLP-1 release ex vivo from ileal explants; parameters: species or system mouse; conditions: 1 h exposure, explants from 18-weeks HF-fed TGR5-Tg male mice
Procedure: . Pellicciari et al., 2007, J. Med. Chem. 50, 4265-4268). cAMP production was performed as described (Sato et al., 2008, J. Med. Chem. 51, 1831; Watanabe et al., 2006, Nature 439, 484). […] ATP/ADP ratio and GLP-1 release were measured according to the manufacturers' instructions (Biovision and Millipore, respectively). Primary brown adipocytes were prepared as previously described (Watanabe et al., 2006, Nature 439, 484), and ileal explants were prepared according to an established method (Cima et al., 2004, J. Exp. Med. 200, 1635-1646).
Plasma parameters and hepatic and fecal lipid content were measured as described (Mataki et al., 2007, Mol. Cell. Biol. 27, 8330-8339). Hematoxylin and eosin (H&E), Sirius red, and oil red 0 staining were performed as described (Mark al., 2007, Curr. Protoc. Mol. Biol. Chapter 29, Unit 29B, 24), and micrographs were taken on wide-field microscopes (Leica) with a CCD camera. For pancreatic sections, islets were sized and counted from four HE-stained alternated sections spaced of […] using ImageJ software (five animals per group). […] Insulin was extracted after O/N incubation at −20° C. in acid ethanol and measured by ELISA on PBS-diluted samples according to the manufacturer's instructions (Mercodia). GLP-1 release was measured in vitro, ex vivo, and in vivo according to methods known in the art.

[4] = tested on: TGR5+/+ and TGR5-/- mice; experiment: Plasma GLP-1 after oral glucose challenge in TGR5+/+ and TGR5-/- mice; assay type: in vivo, mouse; conditions: for GLP-1 release after a glucose challenge: TGR5+/+ mice
Procedure: Animals were housed and bred according to standardized procedures (Argmann and Auwerx, 2006b). Age-matched male mice were used for all experiments. Genetically engineered mouse models (GEMMs), i.e., TGR5-Tg and TGR5^−/− mice, were generated as described in the Supplemental Data. […]; Research Diets) for at least 8 weeks, as mentioned in the text and figure legends. […] Mouse phenotyping experiments were performed according to EMPRESS protocols (see, for example, Empress (European Mouse Phenotyping Resource of Standardised Screening) website) and were aimed to assess food and water intake, body composition (Argmann et al., 2006a, Curr. Protoc. Mol. Biol. Chapter 29, Unit 29A, 23), energy expenditure (Argmann et al., 2006a, Curr. Protoc. Mol. Biol. Chapter 29, Unit 29A, 23), glucose and lipid homeostasis (Argmann et al., 2006b, Curr. Protoc. Mol. Biol. Chapter 29, Unit 29A, 22); Heikkinen et al., 2007, Curr. Protoc. Mol. Chapter. 29, Unit 29B, 23; Mataki et al., 2007, Mol. Cell. Biol. 27, 8330), and plasma biochemistry (Argmann and Auwerx, 2006a, Curr. Protoc. Mol. Biol. Chapter 29, Unit 29A, 22). Tissues and blood were collected and processed for histopathology, blood chemistry, and gene expression according to standardized procedures (Argmann and Auwerx, 2006a; Feige et al., 2008b; Mark et al., 2007; Watanabe et al., 2006). Hyperinsulinemic euglycemic clamp studies were performed as described (Feige et al., 2008b), with minor modifications including a change in the initial insulin bolus (30 mU/kg) and insulin infusion rate (10 mU/min/kg). Plasma GLP-1 levels were measured by ELISA (Millipore) on blood collected by retro-orbital puncture. […].
To further establish a role of TGR5 signaling in the maintenance of glucose homeostasis, we assessed the glucose tolerance of germline TGR5-deficient mice (TGR5^−/−), generated by breeding mice in which the TGR5 allele was floxed with CMV-Cre transgenic mice. […].

[5] = tested on: HF-fed C57BL/6J mice; experiment: Dietary intervention in HF-fed C57BL/6J mice (Example 20); assay type: in vivo, mouse
Procedure: Age-matched male mice were used for all experiments. Genetically engineered mouse models (GEMMs), i.e., TGR5-Tg and TGR5^−/− mice, were generated as described in the Supplemental Data. […] Protoc. Mol. Chapter. […] Protoc. Mol. Biol. Chapter 29, Unit 29A, 22). […] Plasma GLP-1 levels were measured by ELISA (Millipore) on blood collected by retro-orbital puncture.

bovine serum albumin, sequence (P02769 25-607): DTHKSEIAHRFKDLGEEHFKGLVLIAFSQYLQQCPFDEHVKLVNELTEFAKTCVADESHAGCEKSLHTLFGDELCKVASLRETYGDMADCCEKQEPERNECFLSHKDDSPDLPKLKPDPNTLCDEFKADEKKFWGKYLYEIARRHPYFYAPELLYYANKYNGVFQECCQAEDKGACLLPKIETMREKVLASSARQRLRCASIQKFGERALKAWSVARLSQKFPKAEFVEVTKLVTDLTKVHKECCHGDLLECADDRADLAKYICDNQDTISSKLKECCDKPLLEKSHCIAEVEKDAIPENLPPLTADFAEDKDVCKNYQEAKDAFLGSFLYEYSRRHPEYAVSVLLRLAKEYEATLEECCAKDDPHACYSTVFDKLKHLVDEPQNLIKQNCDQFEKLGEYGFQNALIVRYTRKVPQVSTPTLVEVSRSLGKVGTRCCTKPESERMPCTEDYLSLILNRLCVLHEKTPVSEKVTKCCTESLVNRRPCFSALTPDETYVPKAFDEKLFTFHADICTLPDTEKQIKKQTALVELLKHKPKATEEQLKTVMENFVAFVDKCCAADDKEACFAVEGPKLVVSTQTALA

SMILES: CC[C@H]1[C@@H](O)[C@@H]2[C@H](C[C@H](O)[C@]3(C)[C@@H]([C@H](C)C[C@H](C)C(=O)O)CC[C@@H]23)[C@@]2(C)CC[C@@H](O)C[C@@H]12 [Ih3e, 6α-ethyl-(23S)-methyl-3α,7α,12α trihydroxy-5β-cholan-24-oic acid]
- Albumin Binding [1]: 62%
- LXRα Activation EC50 [2]: No activity
- GLP-1 release ex vivo [3]: dramatically and dose-dependently induces the release of GLP-1 ex vivo
- GLP-1 release after a glucose challenge ([4]; DPP4 inhibitor sitagliptin coadministered): markedly more pronounced
- GLP-1 release after a glucose challenge ([4]; preadministration 30 mg/kg oral): moderately increased GLP-1 release
- effects on plasma GLP-1 levels ([4]; TGR5-/- mice): blunted
- expression level of classical target genes of FXR in the liver (CYP7A1, BSEP) ([5]; 30 mg/kg/day): complete absence of changes
- plasma levels ([5]; 30 mg/kg/day admixed with diet): within the range of those of CA and 3-muricholic acid
- increase in liver and fat pad mass ([5]; HF-fed): attenuated
- plasma triglycerides and nonesterified fatty acids (NEFAs) ([5]; HF-fed mice): significant drop
- fat mass ([5]; HF-fed, relative to HF-fed controls): sharp reduction in fat mass
- liver fibrosis ([5]; Sirius red staining): absence of liver fibrosis
- attenuation of body weight gain ([5]; after 10 weeks of treatment, relative to HF-fed controls): about 15%
- plasma levels of liver enzymes ([5]; compared to HF-fed controls): markedly reduced
- respiratory quotient ([5]; dark period): significantly reduced
- energy expenditure (O2 consumption and CO2 production) ([5]; indirect calorimetry): enhanced energy expenditure
- gene expression profiling of BAT ([5]; mouse, in vivo): increase of several mitochondrial genes involved in energy expenditure
- liver steatosis ([5]; oil red O staining, liver lipid content): reduction in liver steatosis
